# Measured values published in ChEMBL document CHEMBL5120920, “A Mitochondria-Targeted Phenylbutyric Acid Prodrug Confers Drastically Improved Anticancer Activities” (J Med Chem, 2022).
# Calls of active or inactive are those of the source. The rule behind the calls is not given here.
# What was measured:
# A-375 [1] = test: Induction of cell cycle arrest in human A-375 cells assessed as accumulation at S phase at 7.5 uM incubated for 24 hrs by PI staining based flow cytometry analysis (reference value: 24.01 %); format: functional
# [2] = Efflux ratio of apparent permeability from basolateral to apical side over apical to basolateral side in human Caco2 cells by LC-MS/MS analysis; format: ADME, cell-based; conditions: Caco-2
# A-375 [3] = test: Antitumor activity against human A-375 cells implanted in BALB/c mouse assessed as reduction in tumor weight at 40 mg/kg, ip measured once every two days for 14 days; format: functional, organism-based; conditions: time 14.0 day
# A-375 [4] = test: Cytotoxicity against human A-375 cells assessed as reduction in cell vaibility measured at 48 hrs in absence of BNPP by MTT assay; format: functional, cell-based; conditions: A-375, 48 h
# [5] = Apparent permeability across apical to basolateral side in human Caco-2 cells at 2 uM measured after 2 hrs by LC-MS/MS analysis; format: ADME, cell-based
# A-375 [6] = test: Induction of cell cycle arrest in human A-375 cells assessed as accumulation at G1 phase at 2.5 uM incubated for 24 hrs by PI staining based flow cytometry analysis (reference value: 68.07 %); format: functional
# [7] = Drug uptake in human A-375 cells measured at 10 mins by RP-HPLC-UV analysis; format: ADME, cell-based; conditions: a-375, 10 min
smiles,measurement,setting,value
O=C(CCCCCCCCC[P+](c1ccc(C(F)(F)F)cc1)(c1ccc(C(F)(F)F)cc1)c1ccc(C(F)(F)F)cc1)NC(COC(=O)CCCc1ccccc1)(COC(=O)CCCc1ccccc1)COC(=O)CCCc1ccccc1.[Br-],Activity,A-375 [1],11.75%
same,efflux ratio,[2],0.69
same,Activity,A-375 [3],Active
same,IC50,A-375 [4],3.34 µM
same,"Papp A→B at 2 h, 2 µM",[5],24.3 ×10⁻⁶ cm/s
same,Activity,A-375 [6],74.71%
same,Drug uptake,[7],Active
